Results on 44 compounds are retold here after patent US20190330189A1, “ANTIBACTERIAL COMPOUNDS” (Janssen Sciences Ireland UC, priority 2015, published 2019).

Like-named read-outs stand apart in the source and are kept apart here.

Series [1] deals with Mycobacterium tuberculosis strain EH 4.0 (361.269). As to the kind of experiment: Test 4: MIC determination, resazurin fluorescence, strain EH 4.0. The class given is cell-based. Particulars: for IC50: Mycobacterium tuberculosis, read-out: pIC50, Test 4, M. tuberculosis strain EH 4.0 (361.269) (converted); for pIC50: Test 4, M. tuberculosis strain EH 4.0 (361.269). The text has this:
TEST 4 (See Also Test 1 Above; in this Test a Different Strain of Mycobacterium tuberculosis Strain is Employed)
Appropriate solutions of experimental and reference compounds were made in 96 well plates with 7H9 medium. Samples of Mycobacterium tuberculosis strain EH 4.0 (361.269) were taken from cultures in stationary growth phase. These were first diluted to obtain an optical density of 0.3 at 600 nm wavelength and then diluted 1/100, resulting in an inoculum of approximately 5×10 exp5 colony forming units per well. Plates were incubated at 37° C. in plastic bags to prevent evaporation. After 7 days, resazurin was added to all wells.
On the technique in general: The colour change of resazurin is a common sign of viable cells or microbes.

For series [2], the system named is Mycobacterium tuberculosis strain H37Rv. The series is described as follows: Test 1: MIC determination, resazurin fluorescence, M. tuberculosis H37Rv. The class given is cell-based. The note with it: for IC50: Mycobacterium tuberculosis, H37RV.
Setting [3] is: Test 1, M. tuberculosis H37Rv, first test, read-out: pIC50 (converted).
Where [4] appears, read: Test 1, repeated (2nd) test, read-out: pIC50 * (converted).
[5] abbreviates: Test 1, repeated (3rd) test, read-out: pIC50 ** (converted).
Setting [6] is: Test 1, M. tuberculosis H37Rv, first test.

A word on the melting point: it is the temperature of the solid-liquid transition. For `CCc1nc2ccc(Cl)cn2c1C(=O)NCc1ccc(N2CC3(CC(c4ccc(OC)c(F)c4)C3)C2)cc1` [Compound 87], the melting point came to 190.35 °C. In series [1], the IC50 is 251 nM.

As for `Cc1nc2sccn2c1C(=O)NCc1ccc(N2CC3(COC3)C2)cc1` [Compound 30], the IC50 in series [2] (setting [3]) was 8910 nM; in series [2] (setting [4]) it was over 12600 nM; in series [2] (setting [5]) it was 11000 nM; in series [1], 7940 nM.

The compound `CCc1nc2ncc(Cl)cn2c1C(=O)NCc1ccc(N2CC3(CC(OC(F)F)C3)C2)cc1` returned a melting point of 163.21 °C.

Consider `CCc1nc2ccc(Cl)cn2c1C(=O)NCC1CC2(CCN(c3ccc(OC(F)(F)F)cc3)CC2)C1` [Compound 15], for which the IC50 is 102 nM in series [2] (setting [3]), 95.5 nM in series [2] (setting [4]) and 158 nM in series [1].

As for `CCc1nc2ccc(Cl)cn2c1C(=O)NCc1ccc(N2CC3(CC(c4ccc(OC(F)(F)F)cc4)C3)C2)cc1` [Compound 7], the IC50 in series [2] (setting [3]) is 100 nM; in series [2] (setting [4]), 75.9 nM; in series [2] (setting [5]), 79.4 nM; in series [1], 15.8 nM.

Take `CCc1nc2sc(C)cn2c1C(=O)NCc1ccc(N2CC3(CC(=O)C3)C2)cc1` [Compound 21]: the IC50 in series [2] (read-out: pIC50 (converted)) is 2450 nM; in series [2] (read-out: pIC50 * (converted)) it was 1050 nM; in series [2] (read-out: pIC50 ** (converted)) it was 1380 nM; in series [1], 100 nM.

`CCc1nc2ccc(Cl)cn2c1C(=O)NCc1ccc(C2CC3(C2)CN(c2ccc(OC(F)(F)F)cc2)C3)cc1` [Compound 2]: the IC50 was 16.2 nM in series [2] (setting [3]), 14.8 nM in series [2] (setting [4]), 11.7 nM in series [2] (setting [5]) and 50.1 nM in series [1].

In the case of `CCc1nc2ncc(Cl)cn2c1C(=O)NCc1ccc(C2CC3(C2)CN(c2ccc(OC(F)(F)F)cc2)C3)cc1` [Compound 3], the IC50 is 25.7 nM in series [2] (setting [3]), 26.3 nM in series [2] (setting [4]), 25.7 nM in series [2] (setting [5]) and 5.01 nM in series [1].

Regarding `CCc1nc2sc(C)cn2c1C(=O)NCc1ccc(N2CC3(COC3)C2)cc1` [Compound 27], the IC50 is 4070 nM in series [2] (setting [3]), 4170 nM in series [2] (setting [4]), 2880 nM in series [2] (setting [5]) and 398 nM in series [1].

For `CCc1nc2ccc(Cl)cn2c1C(=O)NCc1ccc(N2CC3(CC(c4ccc(S(F)(F)(F)(F)F)cc4)C3)C2)cc1` [Compound 10], the IC50 in series [2] (setting [3]) was 148 nM; in series [2] (setting [4]), 141 nM; in series [2] (setting [5]), 107 nM; in series [1], 31.6 nM.

In the case of `CCc1nc2ncc(Cl)cn2c1C(=O)NCc1ccc(N2CC3(CC(c4ccc(OC(F)(F)F)cc4)C3)C2)cc1` [Compound 8], the IC50 in series [2] (setting [3]) is 148 nM; in series [2] (setting [4]), 186 nM; in series [2] (setting [5]), 170 nM; in series [1], 50.1 nM.

On to `CCc1nc2ccc(Cl)cn2c1C(=O)NCc1ccc(N2CC3(CCN(c4ccc(OC(F)(F)F)cc4)CC3)C2)cc1` [Compound 28], for which the IC50 is 6030 nM in series [2] (setting [3]), 7590 nM in series [2] (setting [4]), 7410 nM in series [2] (setting [5]) and 3.16 nM in series [1].

Consider `CCc1nc2sc(C)cn2c1C(=O)NCc1ccc(N2CC3(CC(F)C3)C2)cc1` [Compound 18], for which the IC50 in series [2] (setting [3]) was 191 nM; in series [2] (setting [4]), 123 nM; in series [2] (setting [5]) it was 126 nM; in series [1], 31.6 nM.

On to `CCc1nc2ccc(Cl)cn2c1C(=O)NC1CCC2(CC1)CCN(c1ccc(OC(F)(F)F)cc1)CC2` [Compound 29], for which the IC50 in series [2] (setting [3]) was 7940 nM; in series [2] (setting [4]), 6760 nM; in series [2] (setting [5]) it was 7080 nM; in series [1], 7940 nM.

`CCc1nc2ncc(Cl)cn2c1C(=O)NCc1ccc(N2CC3(CC(c4ccccc4)C3)C2)cc1` [Compound 9]: the IC50 in series [2] (setting [3]) is 83.2 nM; in series [2] (setting [4]) it was 72.4 nM; in series [2] (setting [5]), 53.7 nM; in series [1], 12.6 nM.

Regarding `CCc1c(C(=O)NCc2ccc(N3CC4(CC(F)C4)C3)cc2)c2ccncc2n1C` [Compound 31], the IC50 in series [2] (setting [3]), in series [2] (setting [4]), in series [2] (setting [5]) and in series [1] was over 12600 nM in each case.

A word on the pIC50: it is the negative decadic logarithm of the IC50, by convention in mol/L. Lower therefore signals a large IC50. Take `CCc1nc2ccc(Cl)cn2c1C(=O)NCC1CC12CCN(c1ccc(OC(F)(F)F)cc1)CC2` (centres unmarked) [Compound 1]: the results for the IC50 in series [2] (read-out: pIC50 (converted)) and in series [2] (read-out: pIC50 * (converted)) were 9.33 nM and 13.2 nM, respectively. Also, in series [1], the negative-log IC50 (pIC50) was determined as 7.0.

`O=C(NCC1CC2(CCN(c3ccc(OC(F)(F)F)cc3)CC2)C1)c1cc2n(c1)CCCC2` [Compound 100]: the IC50 in series [1] was over 12600 nM.

On to `CCc1nc2cnc(Cl)cn2c1C(=O)NCC1CC12CCN(c1ccc(OC(F)(F)F)cc1)CC2` (centres unmarked) [Compound 54], for which, in series [1], the IC50 is 7940 nM.

For the compound `CCc1nc2ccc(Cl)cn2c1C(=O)NCC1CC12CCN(c1ccc(OC(F)(F)F)cc1)CC2` (centres unmarked) [Compound 63], the negative-log IC50 (pIC50) in series [1] was 6.5.

On to `Cc1nc2sc(Br)cn2c1C(=O)NCc1ccc(N2CC3(CCC3)C2)cc1` [Compound 13], for which the IC50 in series [2] (setting [3]) was 269 nM; in series [2] (setting [4]) it was 257 nM; in series [2] (setting [5]), 263 nM; in series [1] it was 31.6 nM.

On to `CCc1nc2ccc(Cl)cn2c1C(=O)NCc1ccc(N2CC3(CC(F)C3)C2)cc1` [Compound 16], for which the pIC50 in series [2] (setting [6]) is given as 6.55; in series [1], 8.0. In addition, the “pIC50 *” value in series [2] (Test 1, repeated (2nd) test) is 6.61.

In the case of `CCc1[nH]c2ncc(Cl)cc2c1C(=O)NCC1CC12CCN(c1ccc(OC(F)(F)F)cc1)CC2` (centres unmarked) [Compound 110], the IC50 in series [1] is over 12600 nM.

Regarding `CCc1nc2ccc(Cl)cn2c1C(=O)NCc1ccc(C2CC3(C2)CN(C=O)C3)cc1` [Compound 116], the IC50 in series [1] was 316 nM.

With `CCc1nc2n(c1C(=O)NCc1ccc(C3CC4(C3)CN(c3ccc(OC(F)(F)F)cc3)C4)cc1)CCCC2` [Compound 65], the IC50 in series [1] was 10 nM.

On to `CCc1nn2ccc(C)nc2c1C(=O)NCc1ccc(C2CC3(C2)CN(c2ccc(OC(F)(F)F)cc2)C3)cc1` [Compound 102], for which the IC50 in series [1] was 3980 nM.

As to `CCc1nc2sc(C)cn2c1C(=O)NCC1CC2(CCN(c3ccc(OC(F)(F)F)cc3)CC2)C1` [Compound 32], the IC50 in series [1] is 39.8 nM.

For `CCc1c(C(=O)NCc2ccc(N3CC4(C3)CN(c3ccc(OC(F)(F)F)cc3)C4)cc2)c2cc(Cl)cnc2n1C` [Compound 79], the IC50 in series [1] is over 12600 nM.

With `CCc1nc2ncc(Cl)cn2c1C(=O)NCc1ccc(N2CC3(CC(c4cccnc4)C3)C2)cc1` [Compound 11], the IC50 was 1860 nM in series [2] (setting [3]), 3020 nM in series [2] (setting [4]), 1200 nM in series [2] (setting [5]) and 794 nM in series [1].

Turning to `CCc1nc2ccc(Cl)cn2c1C(=O)NCc1ccc(N2CC3(CC(c4cccnc4)C3)C2)cc1` [Compound 77], the IC50 in series [1] is 794 nM.

For the compound `Cc1nc2sccn2c1C(=O)NCc1ccc(N2CC3(CC(c4ccc(OC(F)(F)F)cc4)C3)C2)cc1` [Compound 24], the IC50 in series [2] (read-out: pIC50 (converted)) is 200 nM; in series [2] (read-out: pIC50 * (converted)), 275 nM; in series [2] (read-out: pIC50 ** (converted)), 115 nM; in series [1], 251 nM.

As for `CCc1nc2n(c1C(=O)NCc1ccc(N3CC4(CC(F)C4)C3)cc1)CCN(C)C2` [Compound 78], in series [1], the IC50 is 2510 nM.

On to `CCc1[nH]c2ncc(Cl)cc2c1C(=O)NCC1CC2(CCN(c3ccc(OC(F)(F)F)cc3)CC2)C1` [Compound 113], for which, in series [1], the IC50 was over 12600 nM.

On to `COc1ccn2nc(C)c(C(=O)NCc3ccc(N4CC5(C4)CN(c4ccc(OC(F)(F)F)cc4)C5)cc3)c2c1` [Compound 57], for which, in series [1], the IC50 was 7.94 nM.

Regarding `CCc1nc2n(c1C(=O)NCc1ccc(N3CC4(CC(Oc5ccc(C(F)(F)F)cc5)C4)C3)cc1)CCN(C)C2` [Compound 74], in series [1], the IC50 was 63.1 nM.

Regarding `CCc1nc2cn(C)ccc-2c1C(=O)NCC1CC12CCN(c1ccc(OC(F)(F)F)cc1)CC2` (centres unmarked) [Compound 99], the IC50 in series [1] is over 12600 nM.

For the compound `CCc1nc2ccc(Cl)cn2c1C(=O)NCC1CCC2(CCN(c3ccc(OC(F)(F)F)cc3)CC2)CO1` (centres unmarked) [Compound 14], the IC50 was 2820 nM in series [2] (setting [3]), 2950 nM in series [2] (setting [4]) and 398 nM in series [1].

In the case of `CCc1nc2n(c1C(=O)NCc1ccc(N3CC4(C3)CN(c3ccc(OC(F)(F)F)cc3)C4)cc1)CCCC2` [Compound 6], the IC50 was 141 nM in series [2] (setting [3]), 102 nM in series [2] (setting [4]), 129 nM in series [2] (setting [5]) and 25.1 nM in series [1].

As to `CCc1nc2ncc(Cl)cn2c1C(=O)NCc1ccc(N2CC3(CC(Oc4ccc(C(F)(F)F)cc4)C3)C2)cc1` [Compound 73], the IC50 in series [1] is 200 nM.

For the compound `CCc1nc2n(c1C(=O)NCc1ccc(N3CC4(CC(c5ccc(OC(F)(F)F)cc5)C4)C3)cc1)CCN(C)C2` [Compound 71], the IC50 in series [1] is 316 nM.

For the compound `CCc1nc2n(c1C(=O)NCc1ccc(N3CC4(CC(F)C4)C3)cc1)CCCC2` [Compound 19], the IC50 in series [2] (setting [3]) was 794 nM; in series [2] (setting [4]) it was 1150 nM; in series [2] (setting [5]), 1070 nM; in series [1], 1260 nM.

`CCc1nc2n(c1C(=O)NCC1CC13CCN(c1ccc(OC(F)(F)F)cc1)CC3)CCN(C)C2` (centres unmarked) [Compound 41]: the IC50 in series [1] is 7940 nM.

In the case of `CCc1nc2ccn(C)cc-2c1C(=O)NCc1ccc(C2CC3(C2)CN(c2ccc(OC(F)(F)F)cc2)C3)cc1` [Compound 112], the IC50 in series [1] was 3160 nM.

Consider `CCc1nc2ccc(Cl)cn2c1C(=O)NCc1ccc(N2CC3(CC(F)C3)C2)cc1` [Compound 17], for which the IC50 in series [2] (setting [4]) is 316 nM; in series [2] (setting [5]), 468 nM. For the same compound, the pIC50 was 7.82 in series [2] (setting [6]) and 7.4 in series [1].
